US11369618B2, “Compounds, compositions and methods for prevention and/or treatment of cancer” (THE TRUSTEES OF THE UNIVERSITY OF PENNSYLVANIA, priority 2016, dated 2022)
Entries after “also recorded” stand apart in the source; their conditions may differ.

Assays:
[1] = test system: mouse and human melanoma cell lines (B16F10, WM46, WM51, WM3702); experiment: proliferation assay of mouse and human melanoma cell lines in vitro; format: cell-based; conditions: estrogen 25 nM E2, G-1 100 nM, vs delivery vehicle
Excerpt: (§1) FIGS. 4A-4F illustrate the finding that GPER signaling slows proliferation and drives differentiation in mouse and human melanoma. FIG. 4A: 5 day proliferation assay of B16F10, WM46 (BRAF^V600E), WM51 (BRAF^V600E), and WM3702 (NRAS^Q61L) cells treated with estrogen (E2), * denotes significance by a two-tailed T-test, n=3 per group. FIG. 4B: 5 day melanin assay of B16F10, WM46 (BRAF^V600E), WM51 (BRAF^V600E), and WM3702 (NRAS^Q61L) cells treated with E2, * denotes significance by a two-tailed T-test, n=3 per group. FIG. 4C: 5 day proliferation assay of B16F10, WM46 (BRAF^V600E), WM51 (BRAF^V600E) and WM3702 (NRAS^Q61L) cells treated with GPER agonist (G-1), * denotes significance by a two-tailed T-test, n=3 per group. FIG. 4D: 5 day melanin assay of B16F10, WM46 (BRAF^V600E), WM51 (BRAF^V600E), and WM3702 (NRAS^Q61L) cells treated with G-1, * denotes significance by a two-tailed T-test, n=3 per group. FIG. 4E: 3 day proliferation assay of B16F10 cells treated with a dose response of G-1, * denotes significance One-way ANOVA with Tukey's multiple comparison test, n=5 per group. FIG. 4F: Western blot of B16F10 cells treated for 16 hours with a saturating dose response of G-1. […]
(§2) Tumor cell proliferation slowed in both mouse and human melanoma cells following treatment with estrogen or G-1, a specific GPER agonist. […] Cell proliferation and differentiation (melanin production) were measured.

[2] = test system: mouse melanoma cell line B16F10; experiment: in vivo treatment with G-1 of B16F10 melanoma (FIG. 6); conditions: B16F10, FIG. 6
[3] = test system: Melanoma cells engineered to maintain c-Myc protein; experiment: c-Myc-transduced WM46 melanoma cells treated with G-1; format: cell-based, human; conditions: c-Myc-transduced WM46, 16 hours
Method: FIG. 12 illustrates the finding that GPER signaling results in loss of c-Myc in melanoma. Panels A-C: Western blots of heMel (Panel A), WM46 (Panel B), and B16F10 (Panel C) melanoma transiently treated with E2 for 3 days, followed by 4 day withdraw. Panel D: Western blot of WM46 cells treated with a specific GPER agonist (G-1) for 16 hours. Panel E: Western blot of luciferase- or c-Myc-transduced WM46 cells treated with G-1 for 16 hours. Panel F: Western blot of WM46 cells treated with G-1 across a time course. Panel G: Western blot of WM46 cells treated with G-1, 100 μM PKA inhibitor Rp-8-Br-cAMPS (PKAi), or both for 1 hour. Panel H: Western blot of WM46 cells treated with G-1, […] proteasome inhibitor (MG132), or both for 1 hour. Panel I: Western blot of WM46 cells treated with 10 μg/ml cyclohexamide (CHX) with and without G-1.
Furthermore, GPER signaling induced a relative growth arrest, associated with hypophosphorylation of Rb in both mouse and human melanoma cells (FIG. 12, Panel D).

NSCLC line LLC1 = experiment: proliferation assay of LLC1 treated with G-1; format: cell-based; conditions: LLC1, 500 nM, 6 days
Method: FIGS. 18A-18G illustrate the finding that GPER signaling reduces NSCLC cell proliferation in vitro and in vivo and has combinatorial effects with αPD-1 immunotherapy. FIG. 18A: Western blot for pCREB of LLC1 cells treated with 500 nM G-1 for 30 minutes. FIG. 18B: Proliferation assay of LLC1 treated with 500 nM G-1 for 6 days. FIG. 18C: Western blot for c-Myc of LLC1 cells treated with 500 nM G-1 for 6 days. FIG. 18D: Western blot for c-Myc of LLC1 cells treated with 500 nM G-1 over a time-course. […] FIG. 18F: Tumor volumes over time of LLC1 tumor bearing mice treated with vehicle or G-1, as well as αPD-1 antibody or isotype antibody control (2A3). FIG. 18G: Survival curve of mice treated with vehicle or G-1, as well as αPD-1 antibody or isotype antibody control (2A3).

[4] = test system: pCREB and c-Myc in NSCLC line TC-1; experiment: Western blot of TC-1 cells treated with G-1; format: cell-based; conditions: TC-1, 500 nM, 1 hour
[5] = test system: murine B16F10 melanoma cells; experiment: G-1-pretreated B16F10 cells injected into syngeneic C57BL/6 mice, then αPD-1 antibody or isotype control; format: in vivo, mouse; conditions: B16F10 cells pretreated in vitro
Excerpt: FIG. 13D: Experimental timeline of vehicle or G-1 pre-treatment of B16F10 cells followed by treatment with either αPD-1 antibody or isotype antibody control (2A3), n=5 per group. FIG. 13E: Tumor volumes of treatment groups at Day 14, * denotes significance One-way ANOVA with Tukey's multiple comparison test. FIG. 13F: Survival curve of mice with tumors pre-treated with vehicle or G-1, followed by isotype antibody control (2A3) or αPD-1 antibody.
To determine whether tumor cell intrinsic GPER signaling influences melanoma vulnerability to immune checkpoint therapy, studies were performed, based on the observation that GPER-driven differentiation is long lasting. G-1 was used to activate GPER and drive differentiation in murine B16F10 melanoma cells in vitro (FIG. 13D). Then, equal numbers of vehicle or G-1-treated tumor cells were injected into syngeneic C57BL/6 mice and the animals were treated with either αPD-1 antibody or isotype antibody control.

PDAC cell lines = experiment: proliferation assay of PDAC cell lines treated with G-1; format: cell-based; conditions: 500 nM over 5 days
[6] = test system: mouse and human melanoma cell lines (B16F10, WM46, WM51, WM3702); experiment: melanin assay (differentiation) of mouse and human melanoma cell lines in vitro; format: cell-based; conditions: estrogen 25 nM E2, G-1 100 nM, vs delivery vehicle
Excerpt: as §1, §2

[7] = test system: tumor infiltrating immune cells; experiment: immune profiling of tumors in YUMM 1.7 melanoma bearing mice; format: in vivo, mouse
Excerpt: FIGS. 15A-15C illustrate the finding that G-1 treatment in vivo alters tumor infiltrating immune cells. […] FIG. 15B: Heatmap summarizing immune profiling across biological replicates, n=5 per group, * denotes significance by two-way ANOVA assuming each immune population is an independent measurement of immune activation. FIG. 15C: Quantification of individual immune populations from FIG. 15B, n=5 per group.

Question: With CC(=O)c1ccc2c(c1)[C@@H]1C=CC[C@@H]1[C@H](c1cc3c(cc1Br)OCO3)N2 (relative stereo) [Compound G-1, rel-1-[4-(6-bromo-1,3-benzodioxol-5-yl)-3aR,4S,5,9bS-tetrahydro-3H-cyclopenta[c]quinolin-8-yl]-ethanone] as the compound, how does the melanoma cell proliferation [1] read?
Answer: slowed melanoma cell proliferation

Question: What about the “tumor growth in vivo” value [2] of the same compound?
Answer: inhibited tumor growth in vivo; also recorded: inhibits mouse melanoma cell line B16F10 growth in vivo

Question: What about the “response of cells engineered to maintain c-Myc protein” value [3] of the same compound?
Answer: resistant

Question: What about the proliferation (NSCLC line LLC1) of the same compound?
Answer: decreased proliferation

Question: What about the “pCREB and c-Myc signaling effects” value [4] of the same compound?
Answer: the same signaling effects also occur

Question: And the subsequent tumor growth [5]?
Answer: inhibited subsequent tumor growth

Question: And the survival [5]?
Answer: extended survival compared to controls

Question: And the proliferation rates (PDAC cell lines)?
Answer: inhibited

Question: And the “differentiation (melanin production)” value [6]?
Answer: drove differentiation

Question: What about the “tumor infiltrating immune cell subsets” value [7] of the same compound?
Answer: increased several immune cell subsets, including T cells and NK cells
